From patent US5563125A, “5'-deoxy-5'-(substituted)alkylthioribose compounds and their pharmaceutical compositions” (priority 1992, dated 1996)

Assays:
[1] = test system: HT-29 (human colon carcinoma); assay: In vitro evaluation, HT-29; assay type: cell-based; conditions: HT-29, medium B, 96 hours, solvent DMSO
Protocol: (§1) In vitro evaluations of the compound 5'-deoxy-5'-(monofluoroethylthio) adenosine (MFETA) were performed using the materials and conditions described in Tables 9 and 10.
(§2) (a) Basal medium + RPMI 1640 + 20 mM HEPES;
(§3) B--5% NuSerum IV + 5% FCS,
(§4) *Incubation or exposure time is determined by the doubling time of the
(§5) cell line such that each is exposed to the compound for 3-4 cell

[2] = test system: LOX (human melanoma); assay: In vitro evaluation, LOX; assay type: cell-based; conditions: medium B, 72 hours
Protocol: as §1
(§6) ^(a) Basal medium = RPMI 1640 + 20 mM HEPES + 2 mM Lglutamine
(§7) B = 5% FCS + 5% NuSerum IV

[3] = test system: MCF7 (human breast carcinoma); assay: In vitro evaluation, MCF7; assay type: cell-based; conditions: MCF7, medium B, 72 hours, solvent DMSO
Protocol: as §1, §2, §3, §4, §5

[4] = test system: PSN-1 (human pancreatic carcinoma); assay: In vitro evaluation, PSN-1; assay type: cell-based; conditions: PSN1, PSN-1, medium C, 72 hours, solvent DMSO
Protocol: as §1, §2, §3, §4, §5

[5] = test system: A549 (human non-small cell lung carcinoma); assay: In vitro evaluation, A549; assay type: cell-based; conditions: A549, medium B, 72 hours, solvent DMSO
Protocol: as §1, §2, §3, §4, §5

[6] = test system: L5178Y leukemic cells; assay: Antitumor effects in L5178Y leukemic mice; assay type: in vivo, DBA/2N mice
Protocol: The antitumor effects of MFETA were evaluated in DBA/2N mice (Charles River) who received i.p. transplants of 10^6 L1210 leukemic cells or 10^6 L5178Y leukemic cells on day 0 according to protocols described previously by Bernacki et al., Cancer Res. 47, 799, 1987. The increase in life span (% ILS) of treated animals relative to untreated, tumor-bearing animals was used as the measure of their therapeutic effectiveness at specified dose regimens.
^a MFETA was administered i.p. on days 1, 2, 3, 4, 5 following i.p.
implantation of 10^6 tumor cells on day 0.
^b % ILS is the percentage of increase in life span.

[7] = test system: T. b. brucei procyclic trypanosomes (Lab 110 EATRO strain); assay: In vitro antitrypanosomal activity, procyclic trypanosomes in T2 medium; assay type: cell-based, Trypanosoma brucei brucei; conditions: Trypanosoma brucei, 3-5 days
Protocol: The antitrypanosomal effects of HETA and other nucleosides were examined in the Lab 110 EATRO strain of T. b. brucei in culture.
Cells were cultured as described in Bacchi et al. Exp. Parasitol. 68, 392, 1989. Cells were then grown in the presence of the compounds for 3-5 days. Drugs were filtered, sterilized and added aseptically. Control cells achieved a maximum density of 1.5-3.5×10^7 /ml. Hemocytometer counts were made daily and the results were expressed as a percent of control growth. IC50 plots were obtained by graphing log (drug) vs. percent growth inhibition.
Trypanocidal Activity of MTA and MTR Analogs
against T. b. brucei procyclic trypanosomes in T2 medium.

[8] = test system: Ebey (human melanoma); assay: In vitro evaluation, Ebey; assay type: cell-based; conditions: medium B, 72 hours
Protocol: as §1, §6, §7

[9] = test system: L1210 cells (MTA phosphorylase-deficient); assay: Growth inhibition of L1210 cells; assay type: cell-based, mouse; conditions: Mus musculus, L1210, 48 h
Protocol: L1210, L5178Y and MOLT-4 cell lines were grown in RPMI 1640 and 10% Nu Serum (Collaborative Research Inc., Lexington, Mass.) and CCRF-CEM cells were grown in 10% Horse Serum (Gibco Laboratories, Grand Island, N.Y.) and maintained as previously described for suspension cultures by Pera et al. in Cancer Res. 46, 1148, 1986. Cell cultures (0.3×10^5 cells/ml) were treated with each compound at 0.1 to 1000 μM to determine the concentration that inhibited growth by 50% (IC50) at 48 hr for the L1210 and L5178Y cells and at 96 hr for the CCRF-CEM and MOLT-4 cells. The incubation times allowed approximately 4 cell doublings in each cell line. All compounds were freshly prepared prior to treatment by dissolving in DMSO and diluting in serum-free media. Cells were counted by electron particle counting (Model XF' Coulter Counter; Coulter Electronics, Hialeah, Fla.).
For each compound, the concentrations required to inhibit cell growth by 50% (IC50 values) are shown in Table 7 for two murine leukemic cell lines, L1210 and L5178Y [MTA phosphorylase-deficient and MTA phosphorylase-containing, respectively] and two human leukemic cell lines, CCRF-CEM and MOLT-4 [MTA phosphorylase-deficient and MTA phosphorylase-containing, respectively]. ETA, MFETA, HETA and PTA had lower IC50 values in the L5178Y cells than in the L1210 cells. […] This differential is consistent with the possibility that, in L5178Y cells, MFETA is cleaved by MTA phosphorylase to the growth inhibitory metabolite, 5-monofluoroethylthioribose-1-phosphate (MFETR-1-P).

[10] = test system: SH-1 (human melanoma); assay: In vitro evaluation, SH-1; assay type: cell-based; conditions: SH-1, medium B, 72 hours
Protocol: as §1, §6, §7

[11] = test system: T. b. brucei LAB 110 EATRO; assay: In vivo antitrypanosomal activity, LAB EATRO mouse infection model; conditions: 7 days, miniosmotic pump
Protocol: ^a Animals were treated with surgically implanted miniosmotic pumps
loaded as per manufacturers instructions with MTA, HETA or MFETA suspende

[12] = test system: PANuT (human melanoma); assay: In vitro evaluation, PANuT; assay type: cell-based; conditions: medium B, 72 hours
Protocol: as §1, §6, §7

[13] = test system: MALME (human melanoma); assay: In vitro evaluation, MALME; assay type: cell-based; conditions: medium B, 72 hours
Protocol: as §1, §6, §7

`Nc1ncnc2c1ncn2[C@@H]1O[C@H](CSCCF)[C@@H](O)[C@H]1O` [MFETA, 5'-deoxy-5'-(monofluoroethylthio)adenosine] showed an IC50 [1] of 259 µM, an IC50 [2] of 268 ± 13 µM and an IC50 [3] of 337 µM. For the same compound, the IC50 [4] was 175 µM, the IC50 [5] was 346 µM and the “% ILS (percentage of increase in life span)” value ([6]; 10 mg/kg i.p. days 1-5) was 12%. The “Mean Death Weight” value ([6]; 10 mg/kg i.p. days 1-5) was 19.7 g, the “Survival Mean ± SD” value ([6]; 10 mg/kg i.p. days 1-5) was 9.0 ± 3 days and the “Survival Median” value ([6]; 10 mg/kg i.p. days 1-5) was 9 days. The “Survival Range” value ([6]; 10 mg/kg i.p. days 1-5) was 8 to 10 days, the “% ILS (percentage of increase in life span)” value ([6]; 50 mg/kg i.p. days 1-5) was 37% and the “Mean Death Weight” value ([6]; 50 mg/kg i.p. days 1-5) was 21.6 g. The “Survival Mean ± SD” value ([6]; 50 mg/kg i.p. days 1-5) was 10.0 ± 6 days, the “Survival Median” value ([6]; 50 mg/kg i.p. days 1-5) was 11 days and the “Survival Range” value ([6]; 50 mg/kg i.p. days 1-5) was 8 to 11 days. For the same compound, the “% ILS (percentage of increase in life span)” value ([6]; 100 mg/kg i.p. days 1-5) was 37%, the “Mean Death Weight” value ([6]; 100 mg/kg i.p. days 1-5) was 23.1 g and the “Survival Mean ± SD” value ([6]; 100 mg/kg i.p. days 1-5) was 10.5 ± 4 days. For the same compound, the “Survival Median” value ([6]; 100 mg/kg i.p. days 1-5) was 11 days, the “Survival Range” value ([6]; 100 mg/kg i.p. days 1-5) was 8 to 12 days and the “% ILS (percentage of increase in life span)” value ([6]; 200 mg/kg i.p. days 1-5) was 62%. The “Mean Death Weight” value ([6]; 200 mg/kg i.p. days 1-5) was 20.4 g, the “Survival Mean ± SD” value ([6]; 200 mg/kg i.p. days 1-5) was 12.4 ± 9 days and the “Survival Median” value ([6]; 200 mg/kg i.p. days 1-5) was 13 days. The “Survival Range” value ([6]; 200 mg/kg i.p. days 1-5) was 9 to 14 days, the “% ILS (percentage of increase in life span)” value ([6]; 300 mg/kg i.p. days 1-5) was -75% and the “Mean Death Weight” value ([6]; 300 mg/kg i.p. days 1-5) was 18.4 g. For the same compound, the “Survival Mean ± SD” value ([6]; 300 mg/kg i.p. days 1-5) was 2.6 ± 4 days, the “Survival Median” value ([6]; 300 mg/kg i.p. days 1-5) was 2 days and the “Survival Range” value ([6]; 300 mg/kg i.p. days 1-5) was 2 to 4 days. For the same compound, the IC50 [7] was 5 µM, the IC50 [8] was 442 ± 13 µM and the IC50 [9] was 150 ± 50 µM. For the same compound, the IC50 [10] was 319 ± 10 µM, the “% Cured” value ([11]; 10 mg/kg/day) was 0% and the “MSD (mean survival in days of animals dying of infection)” value (from here on “MSD”) ([11]; 10 mg/kg/day) was 5.0 days. The “Number Cured Total” value ([11]; 10 mg/kg/day) was 0/5, the “% Cured” value ([11]; 25 mg/kg/day) was 40% and the “MSD” value ([11]; 25 mg/kg/day) was 11.6 days. The “Number Cured Total” value ([11]; 25 mg/kg/day) was 2/5, the “% Cured” value ([11]; 50 mg/kg/day) was 0% and the “MSD” value ([11]; 50 mg/kg/day) was 10.6 days. For the same compound, the “Number Cured Total” value ([11]; 50 mg/kg/day) was 0/5, the “% Cured” value ([11]; 100 mg/kg/day) was 40% and the “MSD” value ([11]; 100 mg/kg/day) was 12.0 days. The “Number Cured Total” value ([11]; 100 mg/kg/day) was 2/5, the IC50 [12] was 160 ± 8.1 µM and the IC50 [13] was 364 ± 13 µM.
